Results as given in patent US5886026A, “Anti-angiogenic compositions and methods of use” (priority 1994, dated 1999).

Assays:
collagenase = assay: IL-1 induced collagenase expression in chondrocytes (Northern blot); format: cell-based, bovine; conditions: 10^-6 M
Method: C-fos is an oncogene transcription factor shown to be involved and required for the induction of genes involved in cell proliferation and collagenase expression. […] When IL-1 is administered to chondrocytes in vitro there is a transient increase in fos mRNA levels which peak 30-60 minutes later, while collagenase mRNA is detected 9 hours later and continues to increase up to 12 hours (data not shown) after IL-1 stimulation. The fos and collagenase mRNA can be detected using the respective cDNA probes and analyzed by Northern blot analysis. This allows the determination of agents capable of inhibiting collagenase production and an approximation of the step in the collagenase synthetic pathway that is affected by the treatment.
The cells were then incubated for a further 16 hours. Total RNA from bovine articular chondrocytes was isolated by the acidified guanidine isothiocyanate method and the collagenase mRNA determined by Northern blot analysis. The RNA samples were prepared as described above using ^32 P-labeled rat collagenase cDNA.

in vitro = conditions: human, neutrophils
Method: (§3) Neutrophils were prepared from freshly collected human citrated whole blood. Briefly, 400 ml of blood were mixed with 80 ml of 4% dextran T500 (Pharmacia LKB, Biotechnology AB Uppsala, Sweden) in HBSS and allowed to settle for 1 h. Plasma was collected continuously and 5 ml applied to 5 ml of Ficoll Paque (Pharmacia) in 15 ml polypropylene tubes (Coming, N.Y.). Following centrifugation at 500×g for 30 min, the neutrophil pellets were washed free of erythrocytes by 20 s of hypotonic shock. Neutrophils were resuspended in HBSS, kept on ice and used for experiments within 3 h. Neutrophil viability and purity was always greater than 90%.
(§4) Cells were incubated for 20 minutes at 33° C. then for 10 minutes at 37° C. before addition to crystals or zymosan.

neutrophils [1] = assay: Neutrophil degranulation, myeloperoxidase release; format: cell-based, human; conditions: 28 μM, CPPD
Method: (§1) All experiments that studied neutrophil responses to crystals or zymosan in the presence of paclitaxel were performed using plasma opsonized CPPD or zymosan. Opsonization of crystals or zymosan was done with 50% heparinized plasma at a concentration of 75 mg of CPPD or 12 mg of zymosan per ml of 50% plasma. Crystals or zymosan were incubated with plasma for 30 min. at 37° C. and then washed in excess HBSS.
(§2) One and a half milliliter Eppendorf tubes containing either 25 mg of CPPD or 1 mg of zymosan were preheated to 37° C. 0.5 ml of cells at 37° C. were added followed by vigorous shaking to initiate the reactions.
Myeloperoxidase (MPO) activity was measured by the increase in absorbance at 450 nm that accompanies the oxidation of dianisidine. 7.8 mg of dianisidine was dissolved in 100 ml of 0.1M citrate buffer, pH 5.5 at […] by sonication. To a 1 ml cuvette, 0.89 mL of the dianisidine solution was added, followed by 50 μl of 1% Triton×100, 10 μl of a 0.05% hydrogen peroxide in water solution and 50 μl of crystal-cell supernatant.

neutrophils [2] = assay: Neutrophil viability (LDH release); conditions: 46 μM, one hour, 37° C.
Method: as §3, §4

neutrophils [3] = assay: Neutrophil degranulation, lysozyme release; format: cell-based, human; conditions: 28 μM, CPPD
Method: as §1, §2
Briefly, Micrococcuis lysodeikticzis was suspended at 0.1 mg/ml in 65 mM potassium phosphate buffer, pH 6.2 and the absorbance at 450 nm was adjusted to 0.7 units by dilution. The crystal (or zymosan) and cell supernatant (100 μl) was added to 2.5 ml of the Micrococcus suspension and the decrease in absorbance was monitored.

[4] = system: chick chorioallantoic membrane (CAM); assay: Chick chorioallantoic membrane (CAM) assay, paclitaxel in methylcellulose disks; format: in vivo
Description: As noted above, the present invention provides methods and compositions which utilize anti-angiogenic factors. Briefly, within the context of the present invention, anti-angiogenic factors should be understood to include any protein, peptide, chemical, or other molecule, which acts to inhibit vascular growth. A variety of methods may be readily utilized to determine the anti-angiogenic activity of a given factor, including for example, chick chorioallantoic membrane ("CAM") assays. Briefly, as described in more detail below in Examples 2A and 2C, a portion of the shell from a freshly fertilized chicken egg is removed, and a methyl cellulose disk containing a sample of the anti-angiogenic factor to be tested is placed on the membrane. After several days (e.g., 48 hours), inhibition of vascular growth by the sample to be tested may be readily determined by visualization of the chick chorioallantoic membrane in the region surrounding the methyl cellulose disk. Inhibition of vascular growth may also be determined quantitatively, for example, by determining the number and size of blood vessels surrounding the methyl cellulose disk, as compared to a control methyl cellulose disk.
Fertilized, domestic chick embryos were incubated for 3 days prior to shell-less culturing. […] These were then placed into an incubator at 90% relative humidity and 3% CO2 and incubated for 3 days.
The membranes of the 8 day-old shell-less embryo were flooded with 2% glutaraldehyde in 0.1M Na cacodylate buffer; additional fixative was injected under the CAM. After 10 minutes in situ, the CAM was removed and placed into fresh fixative for 2 hours at room temperature. The tissue was then washed overnight in cacodylate buffer containing 6% sucrose. The areas of interest were postfixed in 1% osmium tetroxide for 1.5 hours at 4° C. The tissues were then dehydrated in a graded series of ethanols, solvent exchanged with propylene oxide, and embedded in Spurr resin. Thin sections were cut with a diamond knife, placed on copper grids, stained, and examined in a Joel 1200EX electron microscope. Similarly, […] sections were cut and stained with toluene blue for light microscopy.
This imaging setup was used at a magnification of 160 times which permitted the direct visualization of blood cells within the capillaries; thereby blood flow in areas of interest could be easily assessed and recorded. […] This scale represents the degree of overall inhibition with maximal inhibition represented as a 3 on the avascular gradient scale.

[5] = Release from ELVAX:poly-l-lactic acid microspheres, 18 hours tumbling at 37° C.; format: physicochemical
[6] = Encapsulation of paclitaxel or baccatin in ELVAX:poly-l-lactic acid microspheres; format: physicochemical; conditions: for amount encapsulated: from 500 μg
Method: Microspheres are then prepared in a dissolution machine (Six-spindle dissolution tester, VanderKanp, Van Kell Industries Inc., U.S.A.) in triplicate at 200 rpm, 42° C., for 3 hours. Microspheres so prepared are washed twice in water and sized on the microscope.

c-fos = c-fos expression in chondrocytes (Northern blot); format: cell-based, bovine; conditions: 10^-6 to 10^-8 M
Method: Human recombinant TNFα was dissolved in phosphate buffered saline (PBS) with 0.1% bovine serum albumin (BSA). Total RNA from bovine articular chondrocytes was isolated by the acidified guanidine isothiocyanate method and the levels of c-fos mRNA determined by Northern blot analysis. Denatured RNA samples (12 μg) were analyzed by gel electrophoresis in a denaturing 1% agarose gel, transferred to a nylon membrane (Bio-Rad), cross-linked with an ultraviolet cross-linker (Stratagene UV stratalinker 1800), and hybridized with ^32 P-labeled rat c-fos DNA. mRNA for tubulin and total RNA were used as controls. To determine tubulin mRNA, the blots described above were subsequently stripped of DNA and re-probed with ^32 P-labeled rat P-tubulin cDNA. This experimented was conducted three times and the data collated.

neutrophils [7] = assay: Neutrophil superoxide anion generation; format: cell-based, human; conditions: 28 μM
Method: as §1
Superoxide anion concentrations were measured using the superoxide dismutase inhibitable reduction of cytochrome c assay. Briefly, 25 mg of crystals or 0.5 mg of zymosan was placed in a 1.5 ml capped Eppendorf tube and warmed to 37° C. 0.5 ml of cells at 37° C. were added together with ferricytochrome c (final concentration 1.2 mg/ml) and the cells were activated by shaking the capped tubes. […] Control tubes were set up under the same conditions with the inclusion of superoxide dismutase at 600 units per ml.

In the case of `CC(=O)O[C@H]1C(=O)[C@@]2(C)[C@H]([C@H](OC(=O)c3ccccc3)[C@]3(O)C[C@H](OC(=O)[C@H](O)[C@@H](NC(=O)c4ccccc4)c4ccccc4)C(C)=C1C3(C)C)[C@]1(OC(C)=O)CO[C@@H]1C[C@@H]2O` [paclitaxel], the “collagenase mRNA” value (collagenase) is reported as “not detectable above background”, the “inhibition of IL-1 induced collagenase expression” value (collagenase) is reported as “completely inhibited” and the cytotoxicity at 1 h, 46 µM (in vitro) is reported as less than 5%. For the same compound, the myeloperoxidase release (neutrophils [1]) was “significantly inhibited CPPD induced myeloperoxidase release at all times”, the cell death (neutrophils [2]) was “did not cause cell death” and the lysozyme release (neutrophils [3]) was “reduced lysozyme release”. The avascular zone diameter ([4]; 48 h exposure, 10μ paclitaxel per 10 ml methylcellulose) was 6 mm, the inhibition of angiogenesis ([4]; 48 hours after application) was “angiogenesis was inhibited” and the “cells arrested in mitosis in avascular zones” value ([4]; CAM histology) was “abundance of cells arrested in mitosis in all three germ layers”. For the same compound, the “onset of inhibition of angiogenesis” value ([4]; after application) was 9 h, the “time without revascularization of avascular zone” value ([4]; after application) was “at least 7 days” and the avascular gradient scale ([4]; within 48 hours, depending on concentration) was 3 (avascularity extending beyond the disk (6 mm in diameter)). The avascular zone diameter ([4]; within 48 hours, methylcellulose disks) was 6 mm, the “released from the microspheres” value ([5]; fluorescence) was 6% and the “released from the microspheres” value ([5]; uv/vis) was 10.3%. The “encapsulated, % by weight of the polymer” value ([6]; fluorescence) was 1.5%, the “encapsulated, % of original weight” value ([6]; fluorescence) was 15% and the amount encapsulated ([6]; fluorescence) was 75 µg. For the same compound, the “encapsulated, % by weight of the polymer” value ([6]; uv/vis) was 1.2%, the “encapsulated, % of original weight” value ([6]; uv/vis) was 12% and the amount encapsulated ([6]; uv/vis) was 58 µg. The “total RNA and tubulin expression” value (c-fos) was “similarly unaffected”, the c-fos expression (c-fos; TNF stimulated) was “does not alter c-fos expression at any concentration” and the superoxide anion production (neutrophils [7]; CPPD) was “decrease in the amount of superoxide generated at all times”. The superoxide anion production (neutrophils [7]; zymosan) was “less dramatic than the inhibition of CPPD activation but was significant at all times”.
